One test deals with T1, XIAP-BIR3 (Homo sapiens, UniProt P98170).
T1 construct: XIAP-BIR3; purchased Reaction Biology APT-11-374
Nature of the test: XIAP-BIR3 fluorescence polarization binding assay. The conditions noted are these: FP, probe AbuRPFK-5FAM (SM5F) 5 nM, XIAP-BIR3 40 nM, 60 min at 25° C. The source says:
(§1) IAPs are one main cause of cancer development and may result from overexpression of anti-apoptotic proteins. This protocol establishes three binding assays for […] Bir3 domain, cIAP1 and cIAP2 using FP (fluorescence polariation) technology. The fluorescence probe used is a synthetic peptide conjugated to 5-carboxyfluorescein (AbuRPFK-5FAM). The fluorescence polarization value (mP) was detected by Envision, which was used to reflect the binding degree of protein and fluorescent marker.
(§2) • a. Prepare 100 times of the final cpd concentration in appropriate tube and transfer 5 uL cpd to 45 μL 1× reaction buffer with 10% DMSO • b. The final reference cpd concentration is 10000, 3333.3, 1111.1, 370.4, 123.4, 41.2, 13.7, 4.57, 1.52, 0.51, 0.17 and 0 nM. So the 100 times of the concentration is 1000, 333.3, 111.1, 37.04, 12.34, 4.12, […], 0.15, 0.05, 0.017 and 0 μM. The final test cpds concentration is 3333.3, 1111.1, 370.4, 123.4, 41.2, 13.7, 4.57, 1.52, 0.51, 0.17, 0.057 and 0 nM. So the 100 times of the concentration is 333.3, 111.1, 37.04, 12.34, 4.12, […], 0.15, 0.05, 0.017, 0.0057 and […] • c. Add 8 μL/well each dose enzyme to 384 wen microplate (ProxiPlate-384 F Plus, 6008260) using multichannel pipette, prepared in Table 3. • d. Centrifuge at 1000 rpm • e. Add 2 μL/well cpd to 384 well microplate (ProxiPlate-384 F Plus, 6008260) using multichannel pipette, prepared in step a). • f. Centrifuge at 1000 rpm RT, 15 min. • g Start the assay by adding 10 uL/well substrate (prepared in Table 4) to the same 384 wen microplate using multichannel pipette. • h. Centrifuge at 1000 rpm. • i. Cover the assay plate and incubate for 60 min at 25° C. • j. Read on Envision 2104 for mP and plot the IC50s with mP values. • k. Data analysis: IC50s were determined based on a non-linear regression analysis of data collected.
On the technique in general: Fluorescence polarisation rises when a labelled molecule tumbles more slowly, as on binding a larger partner.

The target of another test is T2, cIAP1-BIR3 (Homo sapiens, UniProt Q13490).
T2 construct: cIAP1-BIR3; purchased Reaction Biology APT-11-370
The experiment in a line: cIAP1-BIR3 fluorescence polarization binding assay. The conditions noted are these: FP, probe AbuRPFK-5FAM (SM5F) 5 nM, cIAP1-BIR3 15 nM, 60 min at 25° C.
Description: as §1, §2

The next test deals with T3, cIAP2-BIR3 (Homo sapiens, UniProt Q13489).
T3 construct: cIAP2-BIR3; purchased Reaction Biology APT-11-372
Nature of the test: cIAP2-BIR3 fluorescence polarization binding assay. To be noted: FP, probe AbuRPFK-5FAM (SM5F) 5 nM, cIAP2-BIR3 80 nM, 60 min at 25° C.
Description: as §1, §2

pIC50: −log10 of the molar value.

The text below walks through data of patent publication US20220220152A1, “BIVALENT ANTAGONISTS OF INHIBITORS OF APOPTOSIS PROTEINS” (Hepagene Therapeutics (HK) Limited, priority 2019, published 2022).

By pIC50 is commonly meant −log10 of the IC50, conventionally taken in molar units. A high value points to a low IC50.

T3 sequence (Q13489 238-349 limits assumed): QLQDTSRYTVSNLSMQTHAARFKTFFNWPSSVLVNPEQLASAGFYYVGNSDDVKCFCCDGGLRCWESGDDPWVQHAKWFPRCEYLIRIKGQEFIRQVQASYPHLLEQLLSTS
T1 sequence (P98170 241-356 limits assumed): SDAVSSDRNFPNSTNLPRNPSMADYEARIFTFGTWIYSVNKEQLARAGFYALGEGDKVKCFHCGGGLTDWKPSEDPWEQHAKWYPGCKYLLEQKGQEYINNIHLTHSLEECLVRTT
T2 sequence (Q13490 253-363 limits assumed): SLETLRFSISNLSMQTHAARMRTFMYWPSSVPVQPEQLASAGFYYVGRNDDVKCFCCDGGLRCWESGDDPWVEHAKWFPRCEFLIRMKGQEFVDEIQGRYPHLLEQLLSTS

In the case of `CN[C@@H](C)C(=O)N[C@H](C(=O)N1CCC[C@H]1C(=O)N[C@@H]1CCCc2c(OCCCCCOc3cccc4c3CCC[C@H]4NC(=O)[C@@H]3CCCN3C(=O)[C@@H](NC(=O)[C@H](C)NC)C(C)C)cccc21)C(C)C` [Compound I-G, (2S)-1-[(2S)-3-methyl-2-[(2S)-2-(methylamino)propanamido]butanoyl]-N-[(1R)-5-[(5-[[(5R)-5-[(2S)-1-[(2S)-3-methyl-2-[(2S)-2-(methylamino)propanamido]butanoyl]pyrrolidine-2-amido]-5,6,7,8-tetrahydronaphthalen-1-yl]oxy]pentyl)oxy]-1,2,3,4-tetrahydronaphthalen-1-yl]pyrrolidine-2-carboxamide], the negative logarithm of the IC50 (pIC50) on XIAP-BIR3 is 7.00 to 8.00; on cIAP1-BIR3, 8.00 to 9.00; at cIAP2-BIR3, 7.00 to 8.00.
On to `CN[C@@H](C)C(=O)N[C@H](C(=O)N1CCC[C@H]1C(=O)N[C@@H]1CCCc2c(OCCOCCOc3cccc4c3CCC[C@H]4NC(=O)[C@@H]3CCCN3C(=O)[C@@H](NC(=O)[C@H](C)NC)C3CCCCC3)cccc21)C1CCCCC1` [Compound II, (2S)-1-[(2S)-2-Cyclohexyl-2-[(2S)-2-(methylamino)propanamido]acetyl]-N-[(1R)-5-[2-(2-[[(5R)-5-[(2S)-1-[(2S)-2-cyclohexyl-2-[(2S)-2-(methylamino)propanamido]acetyl]pyrrolidine-2-amido]-5,6,7,8-tetrahydronaphthalen-1-yl]oxy]ethoxy)ethoxy]-1,2,3,4-tetrahydmnaphthalen-1-yl]pyrrolidine-2-carboxamide], for which the results for the negative-log IC50 (pIC50) at XIAP-BIR3, on cIAP1-BIR3 and at cIAP2-BIR3 were 7.00 to 8.00, 8.00 to 9.00 and 8.00 to 9.00, respectively.
For `CN[C@@H](C)C(=O)N[C@H](C(=O)N1CCC[C@H]1C(=O)N[C@@H]1CCCc2c(OCCOCCOc3cccc4c3CCC[C@H]4NC(=O)[C@@H]3CCCN3C(=O)[C@@H](NC(=O)[C@H](C)NC)C(C)C)cccc21)C(C)C` [Compound II-A, (2S)-1-[(2S)-3-Methyl-2-[(2S)-2-(methylamino)propanamido]butanoyl]-N-[(1R)-5-[2-(2-{[(5R)-5-[(2S)-1-[(2S)-3-methyl-2-[(2S)-2-(methylamino)propanamido]butanoyl]pyrrolidine-2-amido]-5,6,7,8-tetrahydronaphthalen-1-yl]oxy}ethoxy)ethoxy]-1,2,3,4-tetrahydronaphthalen-1-yl]pyrrolidine-2-carboxamide], the figures for the pIC50 on XIAP-BIR3, on cIAP1-BIR3 and on cIAP2-BIR3 were 6.00 to 7.00, 8.00 to 9.00 and 8.00 to 9.00, respectively.
For `CN[C@@H](C)C(=O)N[C@H](C(=O)N1CCC[C@H]1C(=O)N[C@@H]1CCCc2c(OCCOCCOc3cccc4c3CCC[C@H]4NC(=O)[C@@H]3CCCN3C(=O)[C@@H](NC(=O)[C@H](C)NC)C3CCOCC3)cccc21)C1CCOCC1` [Compound II-B, (2S)-1-[(2S)-2-[(2S)-2-(Methylamino)propanamido]-2-(oxan-4-yl)acetyl]-N-[(1R)-5-[2-(2-{[(5R)-5-[(2S)-1-[(2S)-2-[(2S)-2-(methylamino)propanamido]-2-(oxan-4-yl)acetyl]pyrrolidine-2-amido]-5,6,7,8-tetrahydronaphthalen-1-yl]oxy}ethoxy)ethoxy]-1,2,3,4-tetrahydronaphthalen-1-yl]pyrrolidine-2-carboxamide], the negative-log IC50 (pIC50) is 7.00 to 8.00 on XIAP-BIR3, 8.00 to 9.00 on cIAP1-BIR3 and 7.00 to 8.00 on cIAP2-BIR3.
As for `CN[C@@H](C)C(=O)N[C@H](C(=O)N1CCC[C@H]1C(=O)N[C@@H]1CCCc2cc(OCCOCCOc3ccc4c(c3)CCC[C@H]4NC(=O)[C@@H]3CCCN3C(=O)[C@@H](NC(=O)[C@H](C)NC)C3CCCCC3)ccc21)C1CCCCC1` [Compound II-D, (2S)-1-[(2S)-2-cyclohexyl-2-[(2S)-2-(methylamino)propanamido]acetyl]-N-[(1R)-6-[2-(2-[[(5R)-5-[(2S)-1-1(2S)-2-cyclohexyl-2-[(2S)-2-(methylamino)propanamido]acetyl]pyrrolidine-2-amido]-5,6,7,8-tetrahydronaphthalen-2-yl]oxy]ethoxy)ethoxyl-1,2,3,4-tetrahydronaphthalen-1-yl]pyrrolidine-2-carboxamide Formic Acid], the results for the pIC50 at XIAP-BIR3, at cIAP1-BIR3 and at cIAP2-BIR3 were less than 6.00, 8.00 to 9.00 and 7.00 to 8.00, respectively.
On the same counts, the results for `CN[C@@H](C)C(=O)N[C@H](C(=O)N1CCC[C@H]1C(=O)N[C@@H]1CCc2c(OCCOCCOc3cccc4c3CC[C@H]4NC(=O)[C@@H]3CCCN3C(=O)[C@@H](NC(=O)[C@H](C)NC)C3CCCCC3)cccc21)C1CCCCC1` [Compound II-F, (2S)-1-[(2S)-2-cyclohexyl-2-[(2S)-2-(methylamino)propanamido]acetyl]-N-[(1R)-4-[2-(2-[[(1R)-1-[(2S)-1-[(2S)-2-cyclohexyl-2-[(2S)-2-(methylamino)propanamido]acetyl]pyrrolidine-2-amido]-2,3-dihydro-1H-inden-4-yl]oxy]ethoxy)ethoxy]-2,3-dihydro-1H-inden-1-yl]pyrrolidine-2-carboxamide] are 7.00 to 8.00, 8.00 to 9.00 and 7.00 to 8.00.
For `CN[C@@H](C)C(=O)N[C@H](C(=O)N1CCC[C@H]1C(=O)N[C@@H]1CCCc2c(-c3ccc(-c4cccc5c4CCC[C@H]5NC(=O)[C@@H]4CCCN4C(=O)[C@@H](NC(=O)[C@H](C)NC)C4CCCCC4)cc3)cccc21)C1CCCCC1` [Compound III, (2S)-1-[(2S)-2-Cyclohexyl-2-[(2S)-2-(methylamino)propanamido]acetyl]-N-[(1R)-5-[4-[(5R)-5-[(2S)-1-[(2S)-2-cyclohexyl-2-[(2S)-2-(methylamino)propanamido]acetyl]pyrrolidine-2-amido]-5,6,7,8-tetrahydronaphthalen-1-yl]phenyl]-1,2,3,4-tetrahydronaphthalen-1-yl]pyrrolidine-2-carboxamide], the pIC50 on XIAP-BIR3 was 7.00 to 8.00; at cIAP1-BIR3, 8.00 to 9.00; on cIAP2-BIR3, 7.00 to 8.00.
For the molecule `CN[C@@H](C)C(=O)N[C@H](C(=O)N1CCC[C@H]1C(=O)N[C@@H]1CCCc2c(-c3ccc4cc(-c5cccc6c5CCC[C@H]6NC(=O)[C@@H]5CCCN5C(=O)[C@@H](NC(=O)[C@H](C)NC)C5CCCCC5)ccc4c3)cccc21)C1CCCCC1` [Compound III-B, (2S)-1-[(2S)-2-Cyclohexyl-2-[(2S)-2-(methylamino)propanamido]acetyl]-N-[(1R)-5-{6-[(5R)-5-[(2S)-1-[(2S)-2-cyclohexyl-2-[(2S)-2-(methylamino)propanamido]acetyl]pyrrolidine-2-amido]-5,6,7,8-tetrahydronaphthalen-1-yl]naphthalen-2-yl}-1,2,3,4-tetrahydmnaphthalen-1-yl]pyrrolidine-2-carboxamide], the pIC50 was 7.00 to 8.00 on XIAP-BIR3, 8.00 to 9.00 at cIAP1-BIR3 and 7.00 to 8.00 at cIAP2-BIR3.
In the case of `CN[C@@H](C)C(=O)N[C@@H](C)C(=O)N1CCC[C@H]1C(=O)N[C@@H]1CCCc2c(-c3cccc(-c4cccc5c4CCC[C@H]5NC(=O)[C@@H]4CCCN4C(=O)[C@H](C)NC(=O)[C@H](C)NC)c3)cccc21` [Compound III-C, (2S)-1-[(2S)-2-[(2S)-2-(methylamino)propanamido]propanoyl]-N-[(1R)-5-[3-[(5R)-5-[(2S)-1-[(2S)-2-[(2S)-2-(methylamino)propanamido]propanoyl]pyrrolidine-2-amido]-5,6,7,8-tetrahydmnaphthalen-1-yl]phenyl]-1,2,3,4-tetrahydmnaphthalen-1-yl]pyrrolidine-2-carboxamide], the negative logarithm of the IC50 (pIC50) at XIAP-BIR3, at cIAP1-BIR3 and on cIAP2-BIR3 was 8.00 to 9.00 throughout.
For the molecule `CN[C@@H](C)C(=O)N[C@H](C(=O)N1CCC[C@H]1C(=O)N[C@@H]1CCCc2c(-c3cccc(-c4cccc5c4CCC[C@H]5NC(=O)[C@@H]4CCCN4C(=O)[C@@H](NC(=O)[C@H](C)NC)C(C)C)c3)cccc21)C(C)C` [Compound III-E, (2S)-1-[(2S)-3-methyl-2-[(2S)-2-(methylamino)propanamido]butanoyl]-N-[(1R)-5-[3-[(5R)-5-[(2S)-1-[(2S)-3-methyl-2-[(2S)-2-(methylamino)propanamido]butanoyl]pyrrolidine-2-amido]-5,6,7,8-tetrahydronaphthalen-1-yl]phenyl]-1,2,3,4-tetrahydronaphthalen-1-yl]pyrrolidine-2-carboxamide], the pIC50 on XIAP-BIR3 is 8.00 to 9.00; at cIAP1-BIR3 it was 8.00 to 9.00; on cIAP2-BIR3, 7.00 to 8.00.
